Patent publication US20110039762A1, “TARGETED ANTIMICROBIAL MOIETIES” (C3 JIAN, INC., priority 2009, published 2011)
“Also recorded” adds a separate entry of the source. Bridge positions count the residues as written; N and C are the ends. Square brackets hold non-standard residues; d marks the D form. Ends that are not written are not given here. Peptide text beside a SMILES is read from it. I, II: the chains in the order shown. Aoc = NCCCCCCCC(=O)O

How the values were obtained:
S. mutans [1] = experiment: Post-antibiotic effect assay (growth retardation after 10 min exposure); format: cell-based, Streptococcus mutans; conditions: S. mutans monoculture, peptide 10 min, then fresh medium
Protocol: The activity and selectivity of MH-STAMPs after a 10 min incubation was determined by growth retardation experiments against targeted and untargeted bacteria in monocultures, as described previously (Id.). Cells from overnight cultures were diluted to ˜5×10^6 cfu/mL in MH (or TH with 1% sucrose for S. mutans), normalized by OD600 0.05-0.1 and seeded to 96-well plates. Cultures were then grown under the appropriate conditions for 2 h (3 h for S. mutans) prior to the addition of peptides for 10 min. Plates were then centrifuged at 3000×g for 5 min, the supernatants discarded, fresh medium returned (MH or TH without sucrose for S. mutans), and incubation resumed. Bacterial growth after treatment was then monitored over time by OD600.

[2] = tested on: Mixed planktonic populations of P. aeruginosa, E. coli, S. epidermidis, and S. mutans; experiment: Microbial population shift assay; format: cell-based; conditions: 10 μM peptide, 24 h
Protocol: Peptide (10 μM) or mock-treatment (1× PBS) was then added and samples were incubated at 37° C. for 24 h under anaerobic conditions (80% N2, 15% CO2, 5% H2). […] Plates were then incubated 37° C. under aerobic conditions (TH plates were incubated anaerobically) and colonies counted after 24 h to determine survivors. […] Gram stains and direct microscopic observation (from select isolated colonies) were undertaken to confirm species identity (data not shown). The detection limit of the assay was 200 cfu/mL.

C. difficile = experiment: MIC (broth microdilution); format: cell-based, Clostridium difficile
Protocol: (§1) Typically, the in vitro antimicrobial activity of antimicrobial agents is tested using standard NCCLS bacterial inhibition assays, or MIC tests (see, National Committee on Clinical Laboratory Standards “Performance Standards for Antimicrobial Susceptibility Testing,” NCCLS Document M100-S5 Vol. 14, No. 16, December 1994; “Methods for dilution antimicrobial susceptibility test for bacteria that grow aerobically-Third Edition,” Approved Standard M7-A3, National Committee for Clinical Standards, Villanova, Pa.).
(§2) Briefly, ˜1×10^5 cfu/mL bacteria were diluted in TH (S. mutans), or Mueller-Hinton (MH) broth (all other organisms) and distributed to 96-well plates. Serially-diluted (2-fold) peptides were then added and the plates incubated at 37° C. for 18-24 h. […] All experiments were conducted 10 times.

microorganisms = experiment: Peptides having multiple activities (targeting/binding, antimicrobial, growth or phenotype altering)
Description: In certain embodiments, peptides described herein can have multiple activities. Thus for example, a peptide can have both binding/targeting activity and antimicrobial activity. Such peptides can be used, e.g., in a chimeric construct, for any or all of these properties. Thus, for example, a peptide designated “B” in Table 8 can be used as a targeting peptide. If it is also designated G or M it can also be used for antimicrobial activity.

[3] = tested on: microorganisms (e.g., bacteria, yeasts, fungi); experiment: Targeting peptide binding to target microorganisms (Table 3); conditions: microorganism(s) the targeting peptide binds, preferably 1x PBS
S. pneumoniae = experiment: Kill or inhibit growth/proliferation; morphology, biofilm and growth disruption (Tables 5, 6); format: cell-based, Streptococcus pneumoniae; parameters: key: A: Peptide aggregates; B: Less hyphal formation; Clumps; Diffuse clumps and small polyps; F: Diffuse growth; H: Thin; I: Growth inhibition; Microcolony formation; Rippled; Small polyps; Thick; W: Halo formation on top, microlonies on bottom
A. baumannii = experiment: MIC (broth microdilution); format: cell-based, Acinetobacter baumannii
Protocol: as §1, §2

S. epidermidis [4] = format: cell-based, Staphylococcus epidermidis; conditions: S. epidermidis
Method in brief: (§3)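 Broth microdilution per NCCLS: ~1×10^5 cfu/mL organisms in Mueller-Hinton broth with 2-fold serial dilutions of peptide. Incubated 37 °C for 18–24 h; MIC read as lowest inhibitory concentration, 10 replicate experiments.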

C. albicans [5] = experiment: Kill or inhibit growth/proliferation; morphology, biofilm and growth disruption (Tables 5, 6); format: cell-based, Candida albicans; parameters: key: A: Peptide aggregates; B: Less hyphal formation; Clumps; Diffuse clumps and small polyps; F: Diffuse growth; H: Thin; I: Growth inhibition; Microcolony formation; Rippled; Small polyps; Thick; W: Halo formation on top, microlonies on bottom
M. luteus = experiment: as above; format: cell-based, Micrococcus luteus; parameters: key: A: Peptide aggregates; B: Less hyphal formation; Clumps; Diffuse clumps and small polyps; F: Diffuse growth; H: Thin; I: Growth inhibition; Microcolony formation; Rippled; Small polyps; Thick; W: Halo formation on top, microlonies on bottom
T. rubrum = experiment: MIC (broth microdilution); format: cell-based, Trichophyton rubrum
Protocol: as §1, §2

S. epidermidis [6] = experiment: Kill or inhibit growth/proliferation; morphology, biofilm and growth disruption (Tables 5, 6); format: cell-based, Staphylococcus epidermidis; parameters: key: A: Peptide aggregates; B: Less hyphal formation; Clumps; Diffuse clumps and small polyps; F: Diffuse growth; H: Thin; I: Growth inhibition; Microcolony formation; Rippled; Small polyps; Thick; W: Halo formation on top, microlonies on bottom
C. albicans [7] = experiment: MIC (broth microdilution); format: cell-based, Candida albicans
Protocol: as §1, §2

B. subtilis [8] = experiment: MIC (broth microdilution); format: cell-based, Bacillus subtilis
Method in brief: as §3

B. subtilis [9] = experiment: Kill or inhibit growth/proliferation; morphology, biofilm and growth disruption (Tables 5, 6); format: cell-based, Bacillus subtilis; parameters: key: A: Peptide aggregates; B: Less hyphal formation; Clumps; Diffuse clumps and small polyps; F: Diffuse growth; H: Thin; I: Growth inhibition; Microcolony formation; Rippled; Small polyps; Thick; W: Halo formation on top, microlonies on bottom
[10] = tested on: BHK-21 (ATCC CRL-10) fibroblasts; experiment: Cytotoxicity, Promega CellTiterGlo assay; format: cell-based, hamster; conditions: BHK, at either 5 min or 24 h, with or without light
Protocol: Streptococcus oralis ATCC 10557, Streptococcus gordonii (Challis), Streptococcus sanguinis (NY101), Streptococcus mitis ATCC 903, Streptococcus salivarius ATCC 13419 and S. mutans wild-type UA140 and JM11 (spectinomycin-resistant) strains were grown in Todd-Hewitt (TH) broth 37° C. in an anaerobic atmosphere of 80% N2, 10% CO2, and 10% H2. BHK-21 (ATCC CRL-10) fibroblasts were propagated in DMEM with 10% FBS, 1 mM sodium pyruvate, 100 units/mL penicillin G, and 100 μg/mL streptomycin at 37° C. with 5% CO2. Cells were detached with 0.25% trypsin and subcultured as recommended by the supplier.
The effect of RB and C16-RB on […] fibroblasts was ascertained by utilizing the Promega CellTiterGlo assay, as described by the manufacturer. Briefly, fibroblasts were grown to confluence, detached, and seeded to ˜5,000 cells per well in a 96-well opaque walled, clear bottom 96-well plate (Nunc International). For long-term dark toxicity, cells were allowed to attach to for 18 h before the culture medium was replaced with medium plus serially-diluted RB or C16-RB (200 μM to 390 nM) or medium alone. After 18-24 h, equal volume Cell Titer Glo reagent was added to each well and mixed. Luciferace activity was then quantified to measure cell viability (Varian Fluorometer in Biolumenescence mode). To measure cytotoxicity after RB or C16-RB light exposure, cells were seeded at ˜10,000 cells per well and allowed to attach for 4 h. Cell growth medium was then replaced with RB or C16-RB containing medium, prior to exposure (a single well at a time) with blue light (400 mW/cm^2) suspended ˜3 cm from the well bottom. After exposure, cultures were disrupted with Cell Titer Glo and luciferase activity quantitated as above.

S. mutans [11] = experiment: Anti-S. mutans STAMP activity in vitro, also in formulations; format: cell-based, Streptococcus mutans
[12] = binding in aqueous buffers depending on peptide solubility

Molecule: CC[C@H](C)[C@H](NC(=O)[C@H](Cc1ccccc1)NC(=O)CCCCCCCNC(=O)[C@H](CCCCNC(=O)CNC(=O)CNC(=O)CNC(=O)[C@H](C)NC(=O)[C@H](CCC(=O)O)NC(=O)[C@H](CC(N)=O)NC(=O)[C@H](C)NC(=O)[C@H](C)NC(=O)[C@@H](N)CC(=O)O)NC(=O)CNC(=O)CNC(=O)CNC(=O)[C@H](CCCNC(=N)N)NC(=O)[C@H](CC(N)=O)NC(=O)[C@H](CC(C)C)NC(=O)[C@H](Cc1ccccc1)NC(=O)[C@H](CCCNC(=N)N)NC(=O)[C@H](Cc1ccccc1)NC(=O)[C@H](Cc1ccccc1)NC(=O)[C@@H](NC(C)=O)[C@@H](C)O)C(=O)N[C@@H](CCCNC(=N)N)C(=O)N[C@@H](CCCCN)C(=O)N[C@@H](Cc1ccccc1)C(=O)N[C@@H](CC(C)C)C(=O)N[C@@H](CCCCN)C(=O)N[C@@H](CCCCN)C(=O)N[C@@H](Cc1c[nH]c2ccccc12)C(=O)N[C@@H](CC(C)C)C(=O)N[C@@H](CC(C)C)C(N)=O [M8(BL)-20] (I: Ac-TFFRFLNRGGGK[Aoc]FIRKFLKKWLL-NH2 / II: H-DAANEAGGG; amide I:12-II:C)
- bacterial growth (OD600) after treatment (S. mutans [1]): effectively retarded
- recoverable (surviving) cfu/mL ([2]; E. coli in mixed culture): not affected or affected to a lesser extent
- recoverable (surviving) cfu/mL ([2]; P. aeruginosa in mixed culture): not affected or affected to a lesser extent
- recoverable (surviving) cfu/mL ([2]; S. epidermidis in mixed culture): not affected or affected to a lesser extent
- recoverable (surviving) cfu/mL ([2]; S. mutans in mixed culture): greatly reduced compared to input cfu/mL

Molecule: FELVDWLETNLGKILKSKSA-NH2 [PF-522]
- MIC (C. difficile): C. difficile, 25 μM
- Activities (microorganisms): G B M
- Target(s) ([3]; peptide binding conducted in aqueous buffers varied by peptide solubility): S. epidermidis; also recorded: E. coli; also recorded: P. aeruginosa; also recorded: S. pneumoniae; also recorded: E. faecalis
- Organism, effect (S. pneumoniae): S. pneumoniae (H)

Molecule: KNKKQTDILEKVKEILDKKKKTKSVGQKLY [PF-538]
- MIC (C. difficile): C. difficile, 25 μM
- Activities (microorganisms): G M
- MIC (A. baumannii): A. baumannii, 25 μM
- Organism, effect (S. pneumoniae): S. pneumoniae (H)

Molecule: LSLATFAKIFMTRSNWSLKRFNRL [PF-278]
- MIC (S. epidermidis [4]): S. epidermidis, 50 μM
- Organism, effect (C. albicans [5]): C. albicans (B)
- Organism, effect (M. luteus): M. luteus (R)
- MIC (T. rubrum): T. rubrum, 50 μM
- Activities (microorganisms): G B M
- Organism, effect (S. epidermidis [6]): S. epidermidis (I)
- MIC (C. albicans [7]): C. albicans, 50 μM
- Target(s) [3, 12]: M. luteus; also recorded: A. baumannii

Molecule: MKRRRCNWCGKLFYLEEKSKEAYCCKECRKKAKKVKK [PF-307]
- Organism, effect (C. albicans [5]): C. albicans (B)
- MIC (T. rubrum): T. rubrum, 50 μM
- MIC (B. subtilis [8]): B. subtilis, 50 μM
- Activities (microorganisms): G B M
- Organism, effect (B. subtilis [9]): B. subtilis (H)
- Organism, effect (S. epidermidis [6]): S. epidermidis (T)
- MIC (C. albicans [7]): C. albicans, 50 μM
- Target(s) [3, 12]: S. epidermidis; also recorded: B. subtilis; also recorded: B. fragilis; also recorded: C. difficile

Molecule: Melittin B
- IC50 [10]: < 1.56 µM

Molecule: TFFRLFNRSFTQALGKGGGKNLRIIRKGIHIIKKY* (not fully specified (C-terminus); printed as TFFRLFNRSFTQALGKGGGKNLRIIRKGIHIIKKY*) [Peptide C16G2]
- PBS strength at activity optimum (S. mutans [11]; PBS formulations 0.5× to about 2.5× PBS): about 1 × PBS
- anti-S. mutans activity (S. mutans [11]; phosphate buffered saline (PBS) formulation): active
- anti-S. mutans activity (S. mutans [11]; water-based salt-free buffers and nanoemulsions): substantially inactive
